For test [1], the system named is Grp78, Grp94, GADD153. As to the kind of experiment: Northern and Western blotting of UPR induction in 293AD cells. In kind it is cell-based, human. Here is the method:
To further assess the effect of cystathionine upon induction of the UPR and GADD153 by ER stress Northern and Western blotting experiments were performed.
Immunoblot analysis of total cell lysates was performed as described previously (4,14). Briefly, following incubation with the appropriate primary and horseradish peroxidase-conjugated secondary antibodies (Affinity Biologicals, Ancaster, ON, Canada) membranes were developed using the Renaissance® Western Blot Chemiluminescence Reagent Kit, (Perkin Elmer, Woodbridge, ON, Canada). Proteins were transferred on a nitrocellulose membrane, and probed with anti-KDEL monoclonal antibody, which recognizes Hsp70, GRP78 and GRP94 that was purchased from Stressgen Biotechnologies (SPA-827) or anti GADD153 (Santa Cruz Biotech #SC-7351). Anti-β-Actin monoclonal antibody (Sigma) was used as a loading control.
Total RNA was isolated from 293AD cells using the RNeasy® total RNA kit (Qiagen, Santa Clarita, Calif.) and resuspended in diethylpyrocarbonate (DEPC)-treated water. Quantification and purity of the RNA was assessed by A260/A280 absorption, and RNA samples with ratios greater than 1.6 were stored at […] for further analysis. Total RNA (10 μg/lane) was fractionated on 2.2 mol/L formaldehyde/1.2% agarose gels and transferred overnight onto Zeta-Probe® GT nylon membranes (Bio-Rad, Toronto, Canada) in 10×SSC. The RNA was cross-linked to the membrane using a UV crosslinker (PDI Bioscience, Toronto, Canada) before hybridization. Specific probes were generated by labeling cDNA fragments with [−32P]dCTP (NEN) using a random primed DNA labeling kit (Boehringer Mannheim, Laval, Canada). The cDNA probe for GADD153 (no. AA627477) was obtained from Genome Systems (St Louis, Mo.). The cDNA probe used for GRP78 is a full length cDNA clone that has been described previously (4). After overnight hybridization at 43° C., the membranes were washed as described by the manufacturer, exposed to x-ray film, and subjected to autoradiography.
(In general: A western blot detects proteins with antibodies after separation by electrophoresis.)

Test [2] relates to WT mice treated with thapsagargin. As to the kind of experiment: Thapsagargin-induced acute tubular necrosis in WT mice in the presence and absence of PPG. In kind it is in vivo, mouse. The following applies: single IP thapsagargin + daily PPG, three days. From the text:
Wild type mice (WT; n=6) to a single sub-lethal intraperitoneal injection of thapsagargin in the presence and absence of the CGL inactivating compound propargylglycine (PPG). WT mice were randomly assigned to one of four treatment groups (n=6 for each group): 1). control, IP injected with PBS (See FIG. 13, Panel A); 2). I.P. injection with PPG (See FIG. 13, Panel B); 3). single I.P […] thapsagargin (See FIG. 13, Panel C); and 4). thapsagargin+PPG (See FIG. 13, Panel D). In groups 2 and 4, PPG treatment was maintained by daily injection until sacrifice at three days post vehicle/thapsagargin injection. After the completion of this treatment regime, all mice were anaesthetized (isoflourane/oxygen) and sacrificed by decapitation.
Wild type mice (WT; n=6) to a single sub-lethal intraperitoneal injection of thapsagargin in the presence and absence of the CGL inactivating compound propargylglycine (PPG). WT mice were randomly assigned to one of four treatment groups (n=6 for each group): 1). control, IP injected with PBS (See Panel A); 2). I.P. injection with PPG (See Panel B); 3). single I.P […] thapsagargin (See Panel C); and 4). thapsagargin+PPG (See Panel D). In groups 2 and 4, PPG treatment was maintained by daily injection until sacrifice at three days post vehicle/thapsagargin injection. […]

SMILES strings stand for the structures.

As for `C#CCC(N)C(=O)O` (racemic) [PPG, D,L-2-amino-4-pentynoic acid], the “expression of Grp78, Grp94 and GADD15 in control cells” value in test [1] (PPG 5 mM or cystathionine 5 mM, no tunicamycin) is reported as “Neither PPG nor exogenously added cystathionine induced expression”. For the same molecule, in test [1] (tunicamycin 5 and 10 μg/ml), the “scale of induction of Grp78, Grp94 and GADD153 in the presence of tunicamycin” value is on record as “Nor did either of these treatments significantly alter the scale of induction”. Moreover, in test [2], the “thapsagargin-induced renal morphological changes (acute tubular necrosis, histology)” value was “completely ablated”.
